The target of this assay is T1, CARM1 (Homo sapiens, UniProt Q86X55).
T1 sequence (Q86X55 1-608): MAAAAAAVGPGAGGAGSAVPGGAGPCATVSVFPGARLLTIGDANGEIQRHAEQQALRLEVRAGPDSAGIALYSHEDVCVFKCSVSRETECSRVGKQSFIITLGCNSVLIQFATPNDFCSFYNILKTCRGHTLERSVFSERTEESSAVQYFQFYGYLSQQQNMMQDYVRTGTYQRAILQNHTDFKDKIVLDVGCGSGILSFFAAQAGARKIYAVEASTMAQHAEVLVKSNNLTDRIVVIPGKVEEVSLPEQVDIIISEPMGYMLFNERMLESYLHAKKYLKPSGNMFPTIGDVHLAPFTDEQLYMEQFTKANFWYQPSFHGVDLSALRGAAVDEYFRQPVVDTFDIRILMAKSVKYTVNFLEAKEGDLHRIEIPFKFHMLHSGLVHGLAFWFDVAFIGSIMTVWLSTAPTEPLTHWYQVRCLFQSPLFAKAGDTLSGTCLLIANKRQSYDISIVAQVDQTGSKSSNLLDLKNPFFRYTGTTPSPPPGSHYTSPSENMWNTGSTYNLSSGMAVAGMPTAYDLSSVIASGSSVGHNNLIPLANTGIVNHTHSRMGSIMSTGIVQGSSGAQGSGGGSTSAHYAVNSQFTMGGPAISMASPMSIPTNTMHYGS
Briefly: CARM1 degradation by western blot in MDA-MB-231 cells. Type of assay: cell-based. Particulars: triple-negative MDA-MB-231 cells, 0.5 μM, after 24 or 48 h. The text has this:
FIGS. 7A-7F. […] Cell lysates were collected and CARM1, methyl-BAF155, total BAF155, methyl-PABP1, and total PABP1 levels were detected by Western blot. […] Cell lysates were collected and CARM1, methyl-BAF155, total BAF155 levels were detected by Western blot. […] Cell proliferation rate normalized to day 0 was plotted. […] Migrated cells were stained with 1% crystal violet and the percentage of migrated cells were plotted. Data mean±s.d. ***. P≤0.001.
Western Blot Assay. Cells were harvested and washed with Dulbecco's phosphate-buffered saline (PBS), then lysed with 1×RIPA lysis buffer (50 mM Tris pH 7.5, 150 mM NaCl, 1% NP-40, 0.5% sodium deoxycholate, and 0.1% sodium dodecyl sulfate) supplemented with 1 mM phenylmethylsulfonyl fluoride, 10 μg/mL aprotinin, 1 μM leupeptin, and 10 μg/mL pepstatin on ice for 20 min. The supernatant was collected after spinning down at 15000 RPM at 4 degrees Celsius for 10 min. The concentration of whole lysates was quantified using a Bradford assay. 50-75 μg of cell lysates was boiled in 4× Laemmli Loading Dye and boiled at 100 degrees Celsius for 10 min. 25 μg were run in 8% SDS-PAGE gels and transferred to nitrocellulose membranes. Blots were blocked in 5% skim milk in PBST [PBS and 0.1% Tween 20] for 45 min, then incubated with primary antibodies at 4 degrees Celsius overnight. […]

Turning to `CNCCN1CCC(c2cc(CN(C)C(=O)c3cccc(Oc4ccc(OCC(=O)N5CCC(CN6CCC(CN7CCN(CC(=O)N[C@H](C(=O)N8C[C@H](O)C[C@H]8C(=O)N[C@@H](C)c8ccc(-c9scnc9C)cc8)C(C)(C)C)CC7)CC6)CC5)cc4)c3)ccn2)CC1` [Compound 3b, (2S,4R)-1-((S)-3,3-dimethyl-2-(2-(4-((1-((1-(2-(4-(3-(methyl((2-(1-(2-(methylamino)ethyl)piperidin-4-yl)pyridin-4-yl)methyl)carbamoyl)phenoxy)phenoxy)acetyl)piperidin-4-yl)methyl)piperidin-4-yl)methyl)piperazin-1-yl)acetamido)butanoyl)-4-hydroxy-N—((S)-1-(4-(4-methylthiazol-5-yl)phenyl)ethyl)pyrrolidine-2-carboxamide], the CARM1 degradation entry is recorded as “effectively degraded”.

(Values after patent US20250222120A1, “SYNTHESIS OF NOVEL SMALL MOLECULE CARM1 DEGRADERS, COMPOUNDS FORMED THEREBY, AND PHARMACEUTICAL COMPOSITIONS CONTAINING THEM” (Wisconsin Alumni Research Foundation, priority 2024, published 2025).)
